US8895504B2, “Amylin derivatives” (priority 2008, dated 2014)
*1 amine or outer side, *2 acyl side, *3 side chain or, on linkers, in order; H or OH if unused. Where a SMILES comes first, the peptide text is derived from it. Bridges are numbered along the chain shown (N, C = ends). The star is where a group is joined. C20 diacid = O=C(O)CCCCCCCCCCCCCCCCCCC(=O)*; γGlu = O=C(O)[C@H](CCC(=O)[*:2])N[*:1]; GABA = NCCCC(=O)O

The molecules below were run against T1, Amylin 3(a) receptor (human calcitonin receptor (CTa) and RAMP-3) (Homo sapiens, UniProt O60896+P30988) (assay: Luciferase assay (III), BHK Amylin 3(a)//CRE-luc cells). Conditions: BHK cells with Amylin 3(a) receptor and CRE luciferase reporter, 4 hours incubation; read-out: Potency Luciferase.
T1 construct: expressed in transfected cells; host or cells: BHK570 cells, stably transfected with a CRE-luciferase reporter
Format: cell-based
Outline: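 Read-out is CRE-driven luciferase luminescence, taken 30 min after LucLite addition at room temperature. Compounds were incubated 4 h at 37° C in assay medium (10% FBS, 10 mM Hepes, pH 7,4). The cell line is BHK570 co-transfected with human calcitonin receptor CTa and RAMP-3, seeded overnight before use.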

T1 sequence (O60896 24-148): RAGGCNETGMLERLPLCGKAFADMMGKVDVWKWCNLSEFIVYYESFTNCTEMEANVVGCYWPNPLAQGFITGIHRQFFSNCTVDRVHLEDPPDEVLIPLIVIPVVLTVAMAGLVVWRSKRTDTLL
T1 sequence (P30988 25-474): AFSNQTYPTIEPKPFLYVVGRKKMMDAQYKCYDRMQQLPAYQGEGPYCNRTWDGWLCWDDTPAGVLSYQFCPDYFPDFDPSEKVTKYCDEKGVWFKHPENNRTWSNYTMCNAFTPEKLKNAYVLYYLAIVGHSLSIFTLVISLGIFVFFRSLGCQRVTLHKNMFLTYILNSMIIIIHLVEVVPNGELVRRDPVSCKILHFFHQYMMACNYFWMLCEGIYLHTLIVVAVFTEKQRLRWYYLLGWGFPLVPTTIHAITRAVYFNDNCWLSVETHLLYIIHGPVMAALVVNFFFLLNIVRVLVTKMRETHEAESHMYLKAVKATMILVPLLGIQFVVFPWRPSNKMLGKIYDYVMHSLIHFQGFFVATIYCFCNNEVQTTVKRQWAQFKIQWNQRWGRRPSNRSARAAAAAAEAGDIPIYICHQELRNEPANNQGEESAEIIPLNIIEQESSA

SMILES | EC50
CC[C@H](C)[C@H](NC(=O)[C@@H]1CCCN1C(=O)CNC(=O)[C@H](Cc1ccccc1)NC(=O)[C@H](CC(N)=O)NC(=O)[C@H](CC(N)=O)NC(=O)[C@H](CO)NC(=O)[C@H](CO)NC(=O)[C@H](Cc1c[nH]cn1)NC(=O)[C@H](Cc1c[nH]cn1)NC(=O)[C@H](CC(C)C)NC(=O)[C@H](Cc1ccccc1)NC(=O)[C@H](CC(N)=O)NC(=O)[C@H](C)NC(=O)[C@H](CC(C)C)NC(=O)[C@H](CCCNC(=N)N)NC(=O)[C@H](CCC(N)=O)NC(=O)[C@@H](NC(=O)[C@H](C)NC(=O)[C@@H]1CSSC[C@H](NC(=O)[C@H](CCCCN)NC(=O)CC[C@H](NC(=O)CCCCCCCCCCCCCCCCCCC(=O)O)C(=O)O)C(=O)N[C@@H](CC(N)=O)C(=O)N[C@@H]([C@@H](C)O)C(=O)N[C@@H](C)C(=O)N[C@@H]([C@@H](C)O)C(=O)N1)[C@@H](C)O)C(=O)N[C@@H](CC(C)C)C(=O)N1CCC[C@H]1C(=O)N1CCC[C@H]1C(=O)N[C@H](C(=O)N[C@@H](CC(N)=O)C(=O)N[C@H](C(=O)NCC(=O)N[C@@H](CO)C(=O)N[C@@H](CC(N)=O)C(=O)N[C@H](C(=O)N[C@@H](Cc1ccc(O)cc1)C(N)=O)[C@@H](C)O)C(C)C)[C@@H](C)O [Example 7, N-alpha-[(S)-4-Carboxy-4-(19-carboxynonadecanoylamino)butyryl]-[His17]-pramlintide] ({C20 diacid-γGlu}-KCNTATCATQRLANFLHHSSNNFGPILPPTNVGSNTY-NH2; disulfide 2-7) | 0.2 nM
CC(C)C[C@H](NC(=O)[C@H](CCCNC(=N)N)NC(=O)[C@H](CCC(N)=O)NC(=O)[C@@H](NC(=O)[C@H](C)NC(=O)[C@@H]1CSSC[C@H](NC(=O)[C@H](CCC(=O)O)NC(=O)[C@H](CCCNC(=N)N)NC(=O)[C@H](CCC(=O)O)NC(=O)CC[C@H](NC(=O)CCCCCCCCCCCCCCCCCCC(=O)O)C(=O)O)C(=O)N[C@@H](CC(N)=O)C(=O)N[C@@H]([C@@H](C)O)C(=O)N[C@@H](C)C(=O)N[C@@H]([C@@H](C)O)C(=O)N1)[C@@H](C)O)C(=O)N[C@@H](C)C(=O)N[C@@H](CC(N)=O)C(=O)N[C@@H](Cc1ccccc1)C(=O)N[C@@H](CC(C)C)C(=O)N[C@@H](Cc1c[nH]cn1)C(=O)N[C@@H](Cc1c[nH]cn1)C(=O)N[C@@H](CO)C(=O)N[C@@H](CO)C(=O)N[C@@H](CCC(N)=O)C(=O)N[C@@H](CC(N)=O)C(=O)N[C@@H](Cc1ccccc1)C(=O)NCC(=O)N[C@@H](C)C(=O)N1CCC[C@H]1C(=O)N[C@@H](CC(C)C)C(=O)N[C@@H](CO)C(=O)N[C@@H](CO)C(=O)N[C@H](C(=O)N[C@@H](CC(N)=O)C(=O)N[C@H](C(=O)NCC(=O)N[C@@H](CO)C(=O)N[C@@H](CC(N)=O)C(=O)N[C@H](C(=O)N[C@@H](Cc1ccc(O)cc1)C(N)=O)[C@@H](C)O)C(C)C)[C@@H](C)O [Example 41, N-alpha-[(S)-4-Carboxy-4-(19-carboxynonadecanoylamino)butyryl]-Glu-Arg-[Glu1,His17,Gln21,Ala25,Pro26,Ser28,Ser29]-pramlintide] ({C20 diacid-γGlu}-ERECNTATCATQRLANFLHHSSQNFGAPLSSTNVGSNTY-NH2; disulfide 4-9) | 0.1 nM

Results, then the molecule that gave them:

EC50 | SMILES
8 nM | CC[C@H](C)[C@H](NC(=O)[C@@H]1CCCN1C(=O)CNC(=O)[C@H](Cc1ccccc1)NC(=O)[C@H](CC(N)=O)NC(=O)[C@H](CC(N)=O)NC(=O)[C@H](CO)NC(=O)[C@H](CO)NC(=O)[C@H](Cc1c[nH]cn1)NC(=O)[C@@H]1CCCN1C(=O)[C@H](CC(C)C)NC(=O)[C@H](Cc1ccccc1)NC(=O)[C@H](CC(N)=O)NC(=O)[C@H](C)NC(=O)[C@H](CC(C)C)NC(=O)[C@H](CCCNC(=N)N)NC(=O)[C@H](CCC(N)=O)NC(=O)[C@@H](NC(=O)[C@H](C)NC(=O)[C@@H]1CSSC[C@H](NC(=O)CC[C@H](NC(=O)CCCCCCCCCCCCCCCCCCC(=O)O)C(=O)O)C(=O)N[C@@H](CC(N)=O)C(=O)N[C@@H]([C@@H](C)O)C(=O)N[C@@H](C)C(=O)N[C@@H]([C@@H](C)O)C(=O)N1)[C@@H](C)O)C(=O)N[C@@H](CC(C)C)C(=O)N1CCC[C@H]1C(=O)N1CCC[C@H]1C(=O)N[C@H](C(=O)N[C@@H](CC(N)=O)C(=O)N[C@H](C(=O)NCC(=O)N[C@@H](CO)C(=O)N[C@@H](CC(N)=O)C(=O)N[C@H](C(=O)N[C@@H](Cc1ccc(O)cc1)C(N)=O)[C@@H](C)O)C(C)C)[C@@H](C)O [Example 15, N-alpha-[(S)-4-Carboxy-4-(19-carboxynonadecanoylamino)butyryl]-[Pro17]-pramlintide (2-37)] ({C20 diacid-γGlu}-CNTATCATQRLANFLPHSSNNFGPILPPTNVGSNTY-NH2; disulfide 1-6)
0.06 nM | CC[C@H](C)[C@H](NC(=O)[C@@H]1CCCN1C(=O)CNC(=O)[C@H](Cc1ccccc1)NC(=O)[C@H](CC(N)=O)NC(=O)[C@H](CC(N)=O)NC(=O)[C@H](CO)NC(=O)[C@H](CO)NC(=O)[C@H](Cc1c[nH]cn1)NC(=O)[C@H](Cc1c[nH]cn1)NC(=O)[C@H](CC(C)C)NC(=O)[C@H](Cc1ccccc1)NC(=O)[C@H](CC(N)=O)NC(=O)[C@H](C)NC(=O)[C@H](CC(C)C)NC(=O)[C@H](CCCNC(=N)N)NC(=O)[C@H](CCC(N)=O)NC(=O)[C@@H](NC(=O)[C@H](C)NC(=O)[C@@H]1CSSC[C@H](NC(=O)CCCNC(=O)CCCCCCCCCCCCCCCCCCC(=O)O)C(=O)N[C@@H](CC(N)=O)C(=O)N[C@@H]([C@@H](C)O)C(=O)N[C@@H](C)C(=O)N[C@@H]([C@@H](C)O)C(=O)N1)[C@@H](C)O)C(=O)N[C@@H](CC(C)C)C(=O)N1CCC[C@H]1C(=O)N1CCC[C@H]1C(=O)N[C@H](C(=O)N[C@@H](CC(N)=O)C(=O)N[C@H](C(=O)NCC(=O)N[C@@H](CO)C(=O)N[C@@H](CC(N)=O)C(=O)N[C@H](C(=O)N[C@@H](Cc1ccc(O)cc1)C(N)=O)[C@@H](C)O)C(C)C)[C@@H](C)O [Example 30, N-alpha-[4-(19-Carboxynonadecanoylamino)butyryl]-[His17]-pramlintide (2-37)] ({C20 diacid-GABA}-CNTATCATQRLANFLHHSSNNFGPILPPTNVGSNTY-NH2; disulfide 1-6)
0.1 nM | CC[C@H](C)[C@H](NC(=O)[C@@H]1CCCN1C(=O)CNC(=O)[C@H](Cc1ccccc1)NC(=O)[C@H](CC(N)=O)NC(=O)[C@H](CC(N)=O)NC(=O)[C@H](CO)NC(=O)[C@H](CO)NC(=O)[C@H](Cc1c[nH]cn1)NC(=O)[C@H](Cc1c[nH]cn1)NC(=O)[C@H](CC(C)C)NC(=O)[C@H](Cc1ccccc1)NC(=O)[C@H](CC(N)=O)NC(=O)[C@H](C)NC(=O)[C@H](CC(C)C)NC(=O)[C@H](CCCNC(=N)N)NC(=O)[C@H](CCC(N)=O)NC(=O)[C@@H](NC(=O)[C@H](C)NC(=O)[C@@H]1CSSC[C@H](NC(=O)[C@H](CCCCN)NC(=O)[C@H](Cc2c[nH]cn2)NC(=O)CC[C@H](NC(=O)CCCCCCCCCCCCCCCCCCC(=O)O)C(=O)O)C(=O)N[C@@H](CC(N)=O)C(=O)N[C@@H]([C@@H](C)O)C(=O)N[C@@H](C)C(=O)N[C@@H]([C@@H](C)O)C(=O)N1)[C@@H](C)O)C(=O)N[C@@H](CC(C)C)C(=O)N1CCC[C@H]1C(=O)N1CCC[C@H]1C(=O)N[C@H](C(=O)N[C@@H](CC(N)=O)C(=O)N[C@H](C(=O)NCC(=O)N[C@@H](CO)C(=O)N[C@@H](CC(N)=O)C(=O)N[C@H](C(=O)N[C@@H](Cc1ccc(O)cc1)C(N)=O)[C@@H](C)O)C(C)C)[C@@H](C)O [Example 28, N-alpha-[(S)-4-Carboxy-4-(19-carboxynonadecanoylamino)butyryl]-His-[His17]-pramlintide] ({C20 diacid-γGlu}-HKCNTATCATQRLANFLHHSSNNFGPILPPTNVGSNTY-NH2; disulfide 3-8)
